pIC50: −log10 of the molar value.
Legend:
[1] = target: Group IIA secretory phospholipase A2 (Homo sapiens); assay: Compound was measured for the inhibitory activity against Secretory phospholipase A 2 (s-PLA2)
[2] = target: Group IIA secretory phospholipase A2 (Homo sapiens); assay: Compound was measured for the inhibitory activity against secretory-phospholipase A2 (s-PLA2)

pIC50 [1] | pIC50 [2] | Structure (SMILES)
5.62 |  | O=C(O)c1ccc2cccc(C(=O)C(F)(F)F)c2c1 [8-(2,2,2-Trifluoro-acetyl)-naphthalene-2-carboxylic acid]
5.35 |  | CCCCCCCCCCOP(=O)(O)c1cc(OCc2ccccc2)ccc1/C=C/C(=O)O [(E)-3-[4-Benzyloxy-2-(decyloxy-hydroxy-phosphoryl)-phenyl]-acrylic acid]
5.77 |  | CCCCCCCOc1ccc(C(=O)O)cc1CC(=O)C(F)(F)F [4-Heptyloxy-3-(3,3,3-trifluoro-2-oxo-propyl)-benzoic acid]
< 3.70 |  | CCCCCCCCOP(=O)(O)c1cccc2ccc(C(=O)O)cc12 [8-(Hydroxy-octyloxy-phosphoryl)-naphthalene-2-carboxylic acid]
 | 5.41 | CCCCCCCCCCCCCCCCCCOP(=O)(O)c1cccc2ccc(C(=O)O)cc12 [8-(Hydroxy-octadecyloxy-phosphoryl)-naphthalene-2-carboxylic acid]

Reference: BindingDB's records for doi:10.1016/S0960-894X(97)00246-1 (1997)
